In brackets after ≈: the same amount, converted by molar mass. Several values for one entry are separate records, joined by “and”; a condition that tells them apart may be missing. Equal entries are not always repeated. Where two headings read alike, the source gives them in different places. *1 amine or outer side, *2 acyl side, *3 side chain or, on linkers, in order; H or OH if unused. Where a SMILES comes first, the peptide text is derived from it. [ ]: non-standard residue; d: D form. X2 = C#CCn1cc(C[C@@H](C(=O)[*:2])N(C)[*:1])c2ccccc21; NMeTrp(1-Me) = CN[C@@H](Cc1cn(C)c2ccccc12)C(=O)O; X4 = C=CCO[C@H](c1ccccc1)[C@H](N[*:1])C(=O)[*:2]; NMeLeu(5-OH,4R) = CN[C@@H](C[C@@H](C)CO)C(=O)O; Phe(βR-OMe) = CO[C@H](c1ccccc1)[C@H](N)C(=O)O; Trp(1-Me) = Cn1cc(C[C@H](N)C(=O)O)c2ccccc21; NMeL = CN[C@@H](CC(C)C)C(=O)O; Pra = C#CC[C@H](N)C(=O)O
What was measured:
[1] = system: Msm 700084; assay: microbe, parasite or virus in culture; format: cell-based
[2] = system: M. tuberculosis H37Rv (ATCC 27294); assay: microbe, parasite or virus in culture; format: cell-based
[3] = format: in vitro ADME, Human; conditions: human, pH 7.4
[4] = format: in vitro ADME, Mice; conditions: for Microsomal Stability Mice: clearance in microsomes
Summary of the method: (§1)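 Compound at 1 µmol/l incubated with 0.5 mg/ml liver microsomes in 100 mM Tris-HCl pH 7.5, 6.5 mM MgCl2, 1 mM NADPH, 37 °C; acetonitrile-quenched at multiple time points, measured by HPLC-MS/MS. First-order half-lives converted to clearance as %Qh via well-stirred liver model.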

[5] = format: in vitro ADME, Rat; conditions: rat, pH 7.4
[6] = system: Caco-2 monolayers; assay: in vitro; conditions: human, Caco-2
Summary of the method: (§2)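 Permeability across Caco-2 monolayers was measured in both directions, apical-to-basolateral and basolateral-to-apical, in 10^-6 cm s-1. Efflux ratio = P(B−A)/P(A−B). Intrinsic permeability is the mean of P(A−B) and P(B−A).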

[7] = in vitro; conditions: human; for efflux ratio: Caco-2
Summary of the method: as §2

[8] = Hepatocyte stability, mice; format: in vitro ADME; conditions: mouse, pH 7.4
Summary of the method: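 Parent depletion by HPLC-MS/MS in mouse hepatocyte suspension (50% serum, ~1 million cells/mL) with 1 µM compound over up to 6 h at 37 °C. Half-lives were scaled to % Qh using the well-stirred liver model.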

[9] = target: ClpC1 NTD protein (M. tuberculosis) (Mycobacterium tuberculosis, UniProt P9WPC9); assay: biochemical; format: binding
Chain of ClpC1 NTD protein (M. tuberculosis) (P9WPC9 1-156, looked up, natural form): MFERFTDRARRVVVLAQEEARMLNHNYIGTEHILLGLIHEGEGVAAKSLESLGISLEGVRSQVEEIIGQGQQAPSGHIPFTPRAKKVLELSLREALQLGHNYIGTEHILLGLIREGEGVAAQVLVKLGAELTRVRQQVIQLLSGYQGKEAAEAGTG

[10] = format: in vitro ADME, Rat; conditions: for Microsomal Stability Rat: clearance in microsomes
Summary of the method: as §1

[11] = Microsomal stability, human; format: in vitro ADME; conditions: for Microsomal Stability Human: clearance in microsomes
Summary of the method: as §1

[12] = system: Msm 607; assay: microbe, parasite or virus in culture; format: cell-based
[13] = Mycolicibacterium smegmatis, 700084, single determinations, read-out: Msm 700084 MIC
[14] = Mycolicibacterium smegmatis, 700084, read-out: MIC Msm 700084
[15] = Mycobacterium tuberculosis, Mtb H37Rv (Supplementary Table 2), read-out: MIC Mtb
[16] = Mycobacterium tuberculosis, single determinations, read-out: Mtb MIC
[17] = Mycolicibacterium smegmatis, 607, read-out: MIC Msm 607
[18] = Mycolicibacterium smegmatis, 607, read-out: Msm 607 MIC, single determinations
[19] = Mycobacterium tuberculosis, M. tuberculosis H37Rv strain, read-out: MIC Mtb H37Rv Mean ± SD
[20] = Mycobacterium tuberculosis, individual measurements (source data), read-out: Mtb MIC
[21] = Caco-2, Caco-2 permeability P (A-B)
[22] = Caco-2, Caco-2 permeability P (B-A)
[23] = SPR, individual measurements (source data), read-out: KD ClpC1-NTD
[24] = SPR, read-out: ClpC1-NTD KD Mean ± SD
[25] = SPR dissociation rate constant, read-out: koff ClpC1-NTD Mean ± SD
[26] = SPR, single independent measurements
[27] = SPR, single independent measurements, read-out: koff ClpC1-NTD

C=CCO[C@H](c1ccccc1)[C@@H]1NC(=O)[C@H](C)NC(=O)[C@H](C[C@@H](C)CO)N(C)C(=O)[C@H](Cc2cn(C)c3ccccc23)NC(=O)[C@H](C(C)C)NC(=O)[C@H](CC(C)C)N(C)C(=O)[C@H](C(C)C)NC1=O [Compound 14] (cyclo(A[X4]V[NMeL]V[Trp(1-Me)][NMeLeu(5-OH,4R)]))
MIC [1, 13]: 12.5 µM (≈ 11.8 µg/mL) | MIC [1, 14]: 12.5 µM (≈ 11.8 µg/mL) | MIC [2, 15]: 3.1 µM (≈ 2.92 µg/mL) | MIC [2, 16]: 3.12 µM (≈ 2.95 µg/mL) | Hepatocyte Human [3]: 41 %Qh | Hepatocyte Stability Human QH [3]: 41.006% | Microsomal Stability Mouse QH [4]: >88.4 >88.4% | Microsomal Stability Mice [4]: > 88 %Qh | Hepatocyte Rat [5]: 57 %Qh | Hepatocyte Stability Rat QH [5]: 56.626% | Caco-2 Int. Perm [6]: 21.7 | efflux ratio [7]: 12.1 | Papp B→A ([7]; Caco-2, CACO permeability PEBA): 30 ×10⁻⁶ cm/s | Hepatocyte Mice [8]: 29 %Qh | Hepatocyte Stability Mouse QH [8]: 28.905% | Kd ([9]; SPR (Supplementary Table 1), read-out: KD ClpC1-NTD Mean ± SD): 10 ± 1 nM | Kd ([9]; SPR, single independent measurements, read-out: KD ClpC1-NTD): 9.31 nM and 10.7 nM | Microsomal Stability Rat QH [10]: 84.3% and 84% | Microsomal Stability Rat [10]: 84 %Qh | Microsomal Stability Human QH [11]: >88.4 >88.4% | Microsomal Stability Human [11]: > 88 %Qh | MIC [12, 17]: 1.6 µM (≈ 1.51 µg/mL) | MIC [12, 18]: 1.56 µM (≈ 1.47 µg/mL)

C#CC[C@@H]1NC(=O)[C@H](CC(C)C)N(C)C(=O)[C@H](C(C)C)NC(=O)[C@H]([C@H](OC)c2ccccc2)NC(=O)[C@H](C)NC(=O)[C@H](C[C@@H](C)CO)N(C)C(=O)[C@H](Cc2cn(C)c3ccccc23)N(C)C1=O [Compound 20] (cyclo(A[Phe(βR-OMe)]V[NMeL][Pra][NMeTrp(1-Me)][NMeLeu(5-OH,4R)]))
MIC [1, 13]: > 50 µM | MIC [1, 14]: > 50 µM | MIC [2, 19]: 50 µM (≈ 46.4 µg/mL) | MIC [2, 15]: 50 µM (≈ 46.4 µg/mL) | MIC [2, 20]: 50 µM (≈ 46.4 µg/mL) | MIC [2, 16]: 50 µM (≈ 46.4 µg/mL) | MIC ([2]; individual measurements (source data), read-out: Mtb MIC): 50.000 µM (≈ 46.4 µg/mL) | Hepatocyte Human [3]: 34 %Qh | Hepatocyte Stability Human QH [3]: 34.158% | Microsomal Stability Mouse QH [4]: >88.400% | Microsomal Stability Mice [4]: > 88 %Qh | Hepatocyte Rat [5]: 63 %Qh | Hepatocyte Stability Rat QH [5]: 63.002% | Caco-2 Int. Perm [6]: 15.7 | Influence of N-methylation on permeability [6]: >11.8 | Permeability Correlation P (A-B) [6]: > 28 | efflux ratio [7]: 11.8 | Papp A→B ([7]; Caco-2, CACO permeability PEAB): 2 ×10⁻⁶ cm/s | Papp B→A ([7]; Caco-2, CACO permeability PEBA): 36 ×10⁻⁶ cm/s | Papp A→B [7, 21]: 2.8 ×10⁻⁶ cm/s | Papp B→A [7, 22]: 28.5 ×10⁻⁶ cm/s | Hepatocyte Mice [8]: 59 %Qh | Hepatocyte Stability Mouse QH [8]: 58.928% | Kd [9, 23]: 14.1 nM and 13.7 nM | Kd [9, 24]: 13.9 ± 0.3 nM | Microsomal Stability Rat QH [10]: >87.900% | Microsomal Stability Rat [10]: > 88 %Qh | Microsomal Stability Human QH [11]: >88.400% | Microsomal Stability Human [11]: > 88 %Qh | MIC [12, 17]: 25 µM (≈ 23.2 µg/mL) | MIC [12, 18]: 25 µM (≈ 23.2 µg/mL)

CCCCCn1cc(C[C@@H]2NC(=O)[C@H](CC(C)C)N(C)C(=O)[C@H](C(C)C)NC(=O)[C@H]([C@H](OC)c3ccccc3)NC(=O)[C@H](C)NC(=O)[C@H](C[C@@H](C)CO)N(C)C(=O)[C@H](Cc3cn(C)c4ccccc34)N(C)C2=O)nn1 [Compound 25]
MIC [1, 13]: 12.5 µM (≈ 13 µg/mL) | MIC [1, 14]: 12.5 µM (≈ 13 µg/mL) | MIC [2, 19]: 6.3 µM (≈ 6.55 µg/mL) | MIC [2, 15]: 6.3 µM (≈ 6.55 µg/mL) | MIC [2, 20]: 6.25 µM (≈ 6.5 µg/mL) | MIC [2, 16]: 6.25 µM (≈ 6.5 µg/mL) | Hepatocyte Human [3]: 30 %Qh | Microsomal Stability Mouse QH [4]: 79.2% and 83.9% | Microsomal Stability Mice [4]: 82 %Qh | Hepatocyte Rat [5]: 16 %Qh | Caco-2 Int. Perm [6]: 11.4 | Permeability Correlation P (A-B) [6]: > 3 | Permeability Correlation Ratio [6]: > 1.5 | efflux ratio [7]: 25.1 | Papp A→B ([7]; Caco-2, CACO permeability PEAB): 0.87 ×10⁻⁶ cm/s | Papp A→B [7, 21]: 0.9 ×10⁻⁶ cm/s | Papp B→A [7, 22]: 22 ×10⁻⁶ cm/s | Hepatocyte Mice [8]: 21 %Qh | Hepatocyte Stability Mouse QH [8]: 27.872% | koff [9, 25]: 0.1 s⁻¹ | Kd [9, 23]: 26.2 nM and 26 nM | koff ClpC1-NTD [9, 26]: 1E-1 1E-1 1/s | koff [9, 27]: 0.1 s⁻¹ | Kd [9, 24]: 26.1 ± 0.1 nM | Microsomal Stability Rat QH [10]: 62% and 62.6% | Microsomal Stability Rat [10]: 62 %Qh | Microsomal Stability Human QH [11]: >88.4 >88.4% | Microsomal Stability Human [11]: > 88 %Qh | MIC [12, 17]: 12.5 µM (≈ 13 µg/mL) | MIC [12, 18]: 12.5 µM (≈ 13 µg/mL)

C#CCn1cc(C[C@H]2C(=O)N(C)[C@@H](C[C@@H](C)CO)C(=O)N[C@@H](C)C(=O)N[C@@H]([C@H](OC)c3ccccc3)C(=O)N[C@@H](C(C)C)C(=O)N(C)[C@@H](CC(C)C)C(=O)N[C@@H](C(C)C)C(=O)N2C)c2ccccc21 [Compound 26] (cyclo(A[Phe(βR-OMe)]V[NMeL]V[X2][NMeLeu(5-OH,4R)]))
MIC [1, 13]: 12.5 µM (≈ 11.9 µg/mL) | MIC [1, 14]: 12.5 µM (≈ 11.9 µg/mL) | MIC [2, 19]: 6.3 µM (≈ 6.02 µg/mL) | MIC [2, 15]: 6.3 µM (≈ 6.02 µg/mL) | MIC [2, 20]: 6.25 µM (≈ 5.97 µg/mL) | MIC [2, 16]: 6.25 µM (≈ 5.97 µg/mL) | Hepatocyte Stability Human QH [3]: 43.919% | Microsomal Stability Mouse QH [4]: >88.400% | Microsomal Stability Mice [4]: > 88 %Qh | Hepatocyte Rat [5]: 68 %Qh | Hepatocyte Stability Rat QH [5]: 67.861% | Caco-2 Int. Perm [6]: 24.0 | Influence of N-methylation on permeability [6]: 9.3 | Permeability Correlation P (A-B) [6]: 13.6 | Permeability Correlation Ratio [6]: 9.3 | efflux ratio [7]: 2.2 | Papp A→B ([7]; Caco-2, CACO permeability PEAB): 25 ×10⁻⁶ cm/s | Papp B→A ([7]; Caco-2, CACO permeability PEBA): 49 ×10⁻⁶ cm/s | Hepatocyte Mice [8]: 67 %Qh | Hepatocyte Stability Mouse QH [8]: 66.557% | koff [9, 25]: 0.04 s⁻¹ | Kd [9, 23]: 17 nM and 12.3 nM | koff ClpC1-NTD [9, 26]: 4E-2 4E-2 1/s | koff [9, 27]: 0.04 s⁻¹ | Kd [9, 24]: 15 ± 3 nM | Microsomal Stability Rat QH [10]: >87.900% | Microsomal Stability Rat [10]: > 88 %Qh | Microsomal Stability Human QH [11]: >88.400% | Microsomal Stability Human [11]: > 88 %Qh | MIC [12, 17]: 6.3 µM (≈ 6.02 µg/mL) | MIC [12, 18]: 6.25 µM (≈ 5.97 µg/mL)

— article PMC10914731, “Homo-BacPROTAC-induced degradation of ClpC1 as a strategy against drug-resistant mycobacteria” (Nature Communications, 2024)
